From US20070203242A1, “Method for treating gastric reflux” (priority 2006, published 2007)

What was measured:
small bowel ulcers = settings: rats; yeast RNA together with L-arginine; cited from earlier work
[1] = test system: patients with gastric reflux / heartburn; experiment: Patient reports of relief of gastric reflux / heartburn after oral L-arginine compositions; type: in vivo, human; settings: for relief of gastric reflux due to stress: one patient
From the text: A patient having ulcerations in the upper small intestine who routinely took omeprazole or lansoprazole complained of heartburn on laying down.

[2] = test system: indomethacin induced gastric lesions; settings: dose 15.6 mg/kg; cited from earlier work
[3] = test system: aspirin induced gastric lesions; settings: dose 62.5 mg/kg; cited from earlier work

SMILES | decrease in ulcer number (small bowel ulcers) [%] | L-arginine required for complete control of the gastric reflux ([1]; daily, severely afflicted patient) [g] | time to complete cessation of all symptoms ([1]; one patient with reflux due to stress, L-arginine 1 gram dose) | relief of gastric reflux due to stress ([1]; L-arginine 1 gram dose) | prevention of indomethacin induced gastric lesions [2] | prevention of aspirin induced gastric lesions [3]
N=C(N)NCCC[C@H](N)C(=O)O [L-arginine] | 34 | 1 to 4 | complete cessation of all symptoms within one minute | immediate relief | – | –
NC(=O)CC[C@H](N)C(=O)O [Glutamine, L-glutamine] | – | – | – | – | ineffective | completely ineffective
O=C([O-])[O-].[Ca+2] [calcium carbonate antacids, calcium carbonate, reference compound] | – | – | – | no relief | – | –
